Data taken from US20080026447A1, “Assay for determining factor viia inhibitor concentration in plasma samples” (Bristol-Myers Squibb Company, priority 2006, published 2008).
Like-named read-outs stand apart in the source and are kept apart here.

Key:
factor VIIa [1] = biological target: T1, factor VIIa (Homo sapiens, UniProt P08709); assay: Factor VIIa substrate hydrolysis (amidolytic activity) in factor X deficient plasma; assay type: biochemical; details: 1 μM inhibitor, 85% factor X deficient plasma, 0.5 nM factor VIIa, D-Ile-Pro-Arg-AFC, FIG. 2
T1 construct: proteolytic cleavage of factor X to factor Xa, factor IX to factor IXa and additional factor VII to factor VIIa
T1 sequence (P08709 61-212 limits assumed): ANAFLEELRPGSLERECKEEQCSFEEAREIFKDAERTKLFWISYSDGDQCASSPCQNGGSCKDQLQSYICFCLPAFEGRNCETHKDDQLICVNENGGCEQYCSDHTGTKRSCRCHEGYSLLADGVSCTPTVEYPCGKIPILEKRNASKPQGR
T1 sequence (P08709 213-466 limits assumed): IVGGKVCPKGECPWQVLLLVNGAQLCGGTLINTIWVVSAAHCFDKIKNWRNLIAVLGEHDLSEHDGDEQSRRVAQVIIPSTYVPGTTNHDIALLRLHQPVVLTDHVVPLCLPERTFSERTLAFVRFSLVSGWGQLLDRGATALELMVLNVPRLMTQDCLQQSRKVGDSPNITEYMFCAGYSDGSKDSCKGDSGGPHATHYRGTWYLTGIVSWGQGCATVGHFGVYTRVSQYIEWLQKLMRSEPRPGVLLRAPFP
T1 sequence (P13726 with tags, fused parts or gaps partner limits assumed): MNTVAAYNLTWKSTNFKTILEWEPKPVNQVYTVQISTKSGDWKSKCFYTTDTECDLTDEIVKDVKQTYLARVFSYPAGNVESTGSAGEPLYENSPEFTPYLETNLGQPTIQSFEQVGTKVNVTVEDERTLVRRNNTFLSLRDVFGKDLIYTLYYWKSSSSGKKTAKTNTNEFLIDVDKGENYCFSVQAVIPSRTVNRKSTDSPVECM
Experimental: The assay was carried out in a fluorescence plate reader at room temperature. factor VIIa substrate hydrolysis (amidolytic activity on the substrate) was monitored for 30 minutes at an excitation wavelength of 400 nm and an emission wavelength of 535 nm. […] Such interference is primarily due to hydrolysis of the relatively nonspecific peptide substrate by downstream proteases such as factor Xa and thrombin.

factor VIIa [2] = biological target: T1, factor VIIa; assay: Factor VIIa inhibition in buffer and in factor X deficient human plasma; assay type: biochemical; details: 2.5 nM factor VIIa, FIG. 5
Experimental: Protein binding of the inhibitor 2-(1-aminoisoquinolin-6-ylamino)-2-(3-ethoxy-4-isopropoxyphenyl)-N-(4-hydroxyphenylsulfonyl)acetamide was determined by measuring factor VIIa inhibition by the test inhibitor in buffer and then in factor X deficient human plasma. […] In FIG. 5, one set of samples contained 2.5 nM factor VIIa, 28 nM soluble tissue factor, 10 mM CaCl2 100 nM D-Ile-Pro-Arg-AFC and varying concentrations of factor VIIa inhibitor 2-(1-aminoisoquinolin-6-ylamino)-2-(3-ethoxy-4-isopropoxyphenyl)-N-(4-hydroxyphenylsulfonyl)acetamide (Compound B). The second sample set was identical to the first set with the addition of 90% factor X deficient plasma. All samples were diluted in 50 mM HEPES pH 7.5, 150 mM NaCl, 0.1% polyethyleneglycol 8000 and 0.1% bovine serum albumin. The assay was carried out in a fluorescence plate reader at room temperature at an excitation wavelength of 400 nm and an emission wavelength of 535 nm. The fraction of the inhibitor bound to plasma protein was calculated according to the following formula: 1-IC50 in buffer/IC50 in plasma. […] Protein binding of 2-(1-aminoisoquinolin-6-ylamino)-2-(3-ethoxy-4-isopropoxyphenyl)-N-(4-hydroxyphenylsulfonyl)acetamide was determined to be 99.2%.

[3] = Binding of factor VIIa inhibitor to plasma proteins (shift in IC50, buffer vs plasma); assay type: in vitro ADME; details: pH 7.5, probe D-Ile-Pro-Arg-AFC (fluorogenic factor VIIa substrate); factor X deficient human plasma; 1-IC50 in buffer/IC50 in plasma; read-out: Protein binding (converted)
Excerpt: Some embodiments of the present invention provide methods for determining the plasma protein binding affinity of a factor VIIa inhibitor for other plasma proteins. Factor VIIa inhibitors having low plasma protein binding affinity for plasma proteins other than factor VIIa are preferred because more unbound factor VIIa inhibitor is available to bind and inhibit factor VIIa. The term “low protein binding factor VIIa inhibitor” as used herein means, a factor VIIa inhibitor that decreases the activity of factor VIIa in the presence or absence of other plasma proteins. […] The fraction of inhibitor bound to plasma protein is calculated by 1-IC50 in buffer/IC50 in plasma.
Protein binding of the inhibitor 2-(1-aminoisoquinolin-6-ylamino)-2-(3-ethoxy-4-isopropoxyphenyl)-N-(4-hydroxyphenylsulfonyl)acetamide was determined by measuring factor VIIa inhibition by the test inhibitor in buffer and then in factor X deficient human plasma. […] The assay was carried out in a fluorescence plate reader at room temperature at an excitation wavelength of 400 nm and an emission wavelength of 535 nm. The fraction of the inhibitor bound to plasma protein was calculated according to the following formula: 1-IC50 in buffer/IC50 in plasma. […] Protein binding of 2-(1-aminoisoquinolin-6-ylamino)-2-(3-ethoxy-4-isopropoxyphenyl)-N-(4-hydroxyphenylsulfonyl)acetamide was determined to be 99.2%.

[4] = Factor VIIa inhibitor concentration in plasma samples from dosed rabbits (functional assay); assay type: in vivo; details: sample B6, plasma from dosed rabbit; IC50 of standard curve × plasma dilution factor giving 50% inhibition
Experimental: Plasma was prepared from tested blood samples drawn from rabbits dosed with (R)-N-(5-acetamido-2-(ethylsulfonyl)benzyl)-2-(1-aminoisoquinolin-6-ylamino)-2-(3,4-dimethoxyphenyl)acetamide (Compound C) into buffered citrate. The samples were diluted and combined with tissue factor, factor VIIa, Ca^++, factor Xa inhibitor 2-(3-Aminomethyl-phenyl)-5-trifluoromethyl-2H-pyrazole-3-carboxylic acid (3-fluoro-2′-methanesulfonyl-biphenyl-4-yl)-amide and fluorogenic factor VIIa substrate D-Ile-Pro-Arg-AFC. The inhibitory activity of the tested sample was measured by monitoring the fluorescence of the D-Ile-Pro-Arg-AFC product and comparing the activity to standard curve constructed with plasma from an undosed rabbit spiked with known concentrations of the (R)-N-(5-acetamido-2-(ethylsulfonyl)benzyl)-2-(1-aminoisoquinolin-6-ylamino)-2-(3,4-dimethoxyphenyl)acetamide. […] The assay was carried out in a fluorescent plate reader at room temperature at an excitation wavelength of 400 nm and an emission wavelength of 535 nm. […] IC50 of the standard curve was calculated using floating top and bottom to account for the background signal not originating from factor VIIa activity. […] The concentration of (R)-N-(5-acetamido-2-(ethylsulfonyl)benzyl)-2-(1-aminoisoquinolin-6-ylamino)-2-(3,4-dimethoxyphenyl)acetamide present in sample B6 was calculated to be 338.5 nM. […]

COc1cc([C@@H]2Nc3ccc(C(=N)N)cc3[C@H]3c4ccccc4C[C@H]32)c(-c2ccc(C(=O)O)cc2)cc1O [2′-((6R,6aR,11bR)-2-carbamimidoyl-6,6a,7,11b-tetrahydro-5H-indeno[2,1-c]quinolin-6-yl)-5′-hydroxy-4′-methoxybiphenyl-4-carboxylic acid]
inhibition of amidolytic activity in factor X deficient plasma (factor VIIa [1]): most of it is inhibited

CCOc1cc(C(Nc2ccc3c(N)nccc3c2)C(=O)NS(=O)(=O)c2ccc(O)cc2)ccc1OC(C)C (centres unmarked) [Compound B, 2-(1-aminoisoquinolin-6-ylamino)-2-(3-ethoxy-4-isopropoxyphenyl)-N-(4-hydroxyphenylsulfonyl)acetamide]
IC50 (factor VIIa [2]; 90% factor X deficient plasma, read-out: IC50 in plasma): 3300 nM
IC50 (factor VIIa [2]; buffer without plasma, read-out: IC50 in buffer): 26 nM
fraction unbound [3]: 0.008

CCS(=O)(=O)c1ccc(NC(C)=O)cc1CNC(=O)[C@H](Nc1ccc2c(N)nccc2c1)c1ccc(OC)c(OC)c1 [Compound C, (R)-N-(5-acetamido-2-(ethylsulfonyl)benzyl)-2-(1-aminoisoquinolin-6-ylamino)-2-(3,4-dimethoxyphenyl)acetamide]
concentration present in plasma sample [4]: 338.5 nM
